Assay results taken from patent US10022440B2, “Materials and methods for modulating immune responses” (UNIVERSITY OF FLORIDA RESEARCH FOUNDATION, INCORPORATED, priority 2011, dated 2018).

Legend:
splenocytes = test: In vitro migration assay toward GM-CSF, splenocytes; assay type: cell-based, mouse; conditions: for increase in cell migration: after 24 hrs, in the presence of GM-CSF, n=3 per group
Protocol: (§1) An in vitro migration assay was performed to evaluate the migratory capacity of splenocytes and bone marrow cells toward GM-CSF. NOD, non-obese resistant (NOR), and C57/BL6 (n=3 per group) mouse cells were used in this assay.

whole bone marrow cells = test: In vitro migration assay toward GM-CSF, bone marrow cells; assay type: cell-based, mouse; conditions: for increase in cell migration: after 24 hrs, in the presence of GM-CSF, n=3 per group
Protocol: as §1

Substance: GM-CSF
- increase in cell migration (splenocytes; C57/BL6 splenocytes): 100%
- migration ratios with or without GM-CSF (splenocytes; NOD splenocytes, p<0.05): no difference
- increase in cell migration (splenocytes; NOR splenocytes): 100%
- increase in cell migration (whole bone marrow cells; C57/BL6 whole bone marrow cells): 100%
- cell migration (whole bone marrow cells; NOD bone marrow cells, compared with NOR and C57/BL6 bone marrow cells): migrated in a similar manner
- increase in cell migration (whole bone marrow cells; NOR whole bone marrow cells): 100%
